Legend:
[1] = test system: FzmM (His6-FzmM); assay: steady-state kinetics of N-hydroxylation; format: biochemical, Streptomyces sp. NRRL S-149; settings: read-out: Km (apparent); co-substrates O2, NADPH, FAD
[2] = test system: FzmQ (His6-FzmQ); assay: spectrophotometric assay of CoA formation; format: biochemical, Streptomyces sp. NRRL S-149; settings: read-out: Km (apparent); co-substrate acetyl-CoA

Km [1] [µM]	Km [2] [µM]	SMILES
790 ± 70		N[C@@H](CC(=O)O)C(=O)O [L-Asp]
	4.2 ± 0.8	NNC(CC(=O)O)C(=O)O (centres unmarked) [hydrazinosuccinate]

From PMC5215806 (Chemical Science, 2016)
